Assays:
[1] = biological target: T1, Nuclear receptor ROR-gamma (Homo sapiens, UniProt P51449); assay: Antagonist activity at RORgammat LBD (unknown origin) LBD
T1 sequence (P51449 whole entry): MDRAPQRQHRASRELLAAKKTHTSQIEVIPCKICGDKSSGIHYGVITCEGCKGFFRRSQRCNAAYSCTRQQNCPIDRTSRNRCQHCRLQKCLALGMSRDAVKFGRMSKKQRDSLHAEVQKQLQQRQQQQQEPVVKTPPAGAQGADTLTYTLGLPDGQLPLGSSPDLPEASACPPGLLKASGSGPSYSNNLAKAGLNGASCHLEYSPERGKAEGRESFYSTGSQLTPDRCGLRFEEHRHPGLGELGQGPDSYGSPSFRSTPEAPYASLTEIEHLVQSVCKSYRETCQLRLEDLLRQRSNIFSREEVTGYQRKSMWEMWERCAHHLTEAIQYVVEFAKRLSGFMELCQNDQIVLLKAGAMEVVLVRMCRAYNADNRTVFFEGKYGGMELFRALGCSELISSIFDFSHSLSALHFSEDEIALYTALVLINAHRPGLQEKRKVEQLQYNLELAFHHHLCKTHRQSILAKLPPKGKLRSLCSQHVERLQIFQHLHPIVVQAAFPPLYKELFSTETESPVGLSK

[2] = Antagonist activity at RORgammat LBD (unknown origin)/NCoR2 (unknown origin) interaction; design: species or system Homo sapiens

- IC50 [1]: 1800 nM
- IC50 [2]: 3.9 µM
SMILES: C[C@H]1O[C@@H](O[C@H]2[C@@H](O)C[C@H](O[C@H]3[C@@H](O)C[C@H](O[C@H]4CC[C@@]5(C)[C@H](CC[C@@H]6[C@@H]5C[C@@H](O)[C@]5(C)[C@@H](C7=CC(=O)OC7)CC[C@]65O)C4)O[C@@H]3C)O[C@@H]2C)C[C@H](O)[C@@H]1O [DIGOXIN]
